These results are taken from US20240150330A1, “CHROMANS AND BENZOFURANS AS 5-HT1A AND TAAR1 AGONISTS” (Sunovion Pharmaceuticals Inc., priority 2021, published 2024).

Structures are written as SMILES.

The target of this experiment is T1, TAAR1 receptor (UniProt Q96RJ0).
T1 sequence (Q96RJ0 1-339): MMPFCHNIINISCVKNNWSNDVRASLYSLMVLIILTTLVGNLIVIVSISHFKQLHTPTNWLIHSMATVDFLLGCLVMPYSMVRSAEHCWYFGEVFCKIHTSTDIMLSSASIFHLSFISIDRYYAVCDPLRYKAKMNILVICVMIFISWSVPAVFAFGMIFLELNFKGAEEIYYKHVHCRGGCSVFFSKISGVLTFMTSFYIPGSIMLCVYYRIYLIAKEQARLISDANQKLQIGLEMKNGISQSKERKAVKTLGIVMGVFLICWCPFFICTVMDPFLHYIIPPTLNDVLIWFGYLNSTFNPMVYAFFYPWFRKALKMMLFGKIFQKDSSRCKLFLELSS
Kind of experiment: TAAR1 Agonist cAMP Assay. The format is cell-based, human or mouse. As to conditions: CHO-K1 cells expressing TAAR1; cAMP HTRF; 30 minutes at room temperature. On the procedure: CHO-K1 cells expressing the human TAAR1 receptor (Accession number NP_612200.1) or mouse TAAR1 receptor (Accession number NP_444435.1) were grown in media (Advanced DMEM supplemented with 1% dialyzed fetal bovine serum) without antibiotics. The cells were detached by gentle flushing with phosphate buffered saline containing 5 mM EDTA, recovered by centrifugation and resuspended in assay buffer (Krebs-Ringers Henseleit buffer: 5 mM KCl, 1.25 mM MgSO4, 124 mM NaCl, 25 mM HEPES, 13.3 mM Glucose, 1.25 mM KH2PO4, 1.45 mM CaCl2, 0.5 g/L BSA, supplemented with 1 mM isobutylmethylxanthine). Testing was performed in 384-well plates. 5 μl of cells (3000 cells) were mixed with 5 μl of the test compound diluted in assay buffer and then incubated for 30 minutes at room temperature. cAMP levels were determined using the Cisbio cAMP Gs dynamic HTRF kit (Cisbio, Bedford, MA). The results of the testing are shown in Table 3, with EC50 ranges designated as follows: • A=0.1 μM to 1 μM • B=0.01 μM to <0.1 μM • C=0.001 μM to <0.01 μM • D=0.0001 μM to <0.001 μM

Compound `NC[C@@H]1CCOc2c(-c3cnc[nH]3)cccc21` [Compound 44, 1-[(4R)-8-(1H-imidazol-5-yl)-3,4-dihydro-2H-1-benzopyran-4-yl]methanamine] returned an EC50 of 1 to 10 nM.
`CNC[C@@H]1CCOc2c(-c3ccncc3OC)cccc21` [Compound 12, (R)-1-(8-(3-methoxypyridin-4-yl)chroman-4-yl)-N-methylmethanamine] had an EC50 of 100 to 1000 nM.
Next, `Cc1nccc(-c2cccc3c2OCC[C@H]3CN)c1C` [Compound 30, (R)-(8-(2,3-dimethylpyridin-4-yl)chroman-4-yl)methanamine]: 10 to 100 nM; `NC[C@@H]1CCOc2c(-c3cncnc3)cccc21` [Compound 31]: 1 to 10 nM.
`CNC[C@@H]1CCOc2c(-c3cnn(C)c3C)cccc21` [Compound 48] came in with an EC50 of 1 to 10 nM.
In turn, `CNC[C@@H]1CCOc2c(-c3cnc(C)nc3)cccc21` [Compound 43] registered an EC50 of 100 to 1000 nM.
Compound `Cc1ccncc1-c1cccc2c1OCC[C@H]2CN` [Compound 5, (R)-(8-(4-methylpyridin-3-yl)chroman-4-yl)methanamine] showed an EC50 of 1 to 10 nM.
For the compound `NC[C@@H]1CCOc2c(-c3ccnc(C(F)(F)F)c3)cccc21` [Compound 9, 1-[(4R)-8-[2-(trifluoromethyl)pyridin-4-yl]-3,4-dihydro-2H-1-benzopyran-4-yl]methanamine], the EC50 was 0.1 to 1 nM.
The compound `CNC[C@@H]1CCOc2c(-c3cnc[nH]3)cccc21` [Compound 45, {[(4R)-8-(1H-imidazol-5-yl)-3,4-dihydro-2H-1-benzopyran-4-yl]methyl}(methyl)amine] displayed an EC50 of 1 to 10 nM.
In the case of `COc1cnccc1-c1cccc2c1OCC[C@H]2CN` [Compound 11, [(4R)-8-(3-methoxypyridin-4-yl)-3,4-dihydro-2H-1-benzopyran-4-yl]methanamine], the EC50 was in the range of 1 to 10 nM.
Compound `Cc1cc(-c2cccc3c2OCC[C@H]3CN)ccn1` [Compound 17, (R)-(8-(2-methylpyridin-4-yl)chroman-4-yl)methanamine] had a half-maximal effective concentration (EC50) of 1 to 10 nM.
Turning to `Cc1cc(-c2cccc3c2OCC[C@@H]3CN)ccn1` [Compound 15, (S)-(8-(2-methylpyridin-4-yl)chroman-4-yl)methanamine], the EC50 was in the range of 1 to 10 nM.
As to `CNC[C@@H]1CCOc2c(-c3cc(C)ncc3C)cccc21` [Compound 33], the EC50 was 1 to 10 nM.
Take `Cn1cncc1-c1cccc2c1OCC[C@H]2CN` [Compound 36]: the EC50 is 1 to 10 nM.
In turn, `Cc1cnccc1-c1cccc2c1OCC[C@H]2CN` [Compound 20, (R)-(8-(3-methylpyridin-4-yl)chroman-4-yl)methanamine] yielded an EC50 of 1 to 10 nM.
Take `CNC[C@@H]1CCOc2c(-c3ccnc(C)c3C)cccc21` [Compound 42]: the EC50 is 10 to 100 nM.
Take `CNC[C@@H]1CCOc2c(-c3ccnc(C)c3)cccc21` [Compound 18, (R)—N-methyl-1-(8-(2-methylpyridin-4-yl)chroman-4-yl)methanamine]: the EC50 was 1 to 10 nM.
Compound `CNC[C@@H]1CCOc2c(-c3nccs3)cccc21` [Compound 56, (R)—N-methyl-1-(8-(thiazol-2-yl)chroman-4-yl)methanamine] showed a half-maximal effective concentration (EC50) of 10 to 100 nM.
For `CNC[C@@H]1CCOc2c(-c3ccn(C)n3)cccc21` [Compound 55, (R)—N-methyl-1-(8-(1-methyl-1H-pyrazol-3-yl)chroman-4-yl)methanamine], the EC50 was in the range of 10 to 100 nM.
The value for `CNC[C@@H]1CCOc2c(-c3cnn(C)c3)cccc21` [Compound 54, (R)—N-methyl-1-(8-(1-methyl-1H-pyrazol-4-yl)chroman-4-yl)methanamine] was 1 to 10 nM; that for `CNC[C@@H]1CCOc2c(-c3cncs3)cccc21` [Compound 39] was 1 to 10 nM.
`Cc1ncccc1-c1cccc2c1OCC[C@H]2CN` [Compound 27] registered an EC50 of 10 to 100 nM.
As for `CNC[C@H]1CCOc2c(-c3cccnc3)cccc21` [Compound 25], the EC50 fell in the range of 10 to 100 nM.
On to `NC[C@@H]1CCOc2c(-c3ccnnc3)cccc21` [Compound 40], for which the EC50 was in the range of 1 to 10 nM.
Regarding `CNC[C@@H]1CCOc2c(-c3ccncc3C)cccc21` [Compound 21, methyl({[(4R)-8-(3-methylpyridin-4-yl)-3,4-dihydro-2H-1-benzopyran-4-yl]methyl})amine], the EC50 was in the range of 10 to 100 nM.
`CNC[C@@H]1CCOc2c(-c3ccc(C(F)(F)F)nc3)cccc21` [Compound 8, methyl({[(4R)-8-[6-(trifluoromethyl)pyridin-3-yl]-3,4-dihydro-2H-1-benzopyran-4-yl]methyl})amine] came in with an EC50 of 10 to 100 nM.
`NC[C@@H]1CCOc2c(-c3ccc(C(F)(F)F)nc3)cccc21` [Compound 7, 1-[(4R)-8-[6-(trifluoromethyl)pyridin-3-yl]-3,4-dihydro-2H-1-benzopyran-4-yl]methanamine] yielded an EC50 of 10 to 100 nM.
The compound `NC[C@@H]1CCOc2c(-c3cncs3)cccc21` [Compound 38] displayed a concentration giving a half-maximal response (EC50) of 0.1 to 1 nM.
The compound `CNC[C@@H]1CCOc2c(-c3cccnc3C)cccc21` [Compound 28] had an EC50 of 10 to 100 nM.
The compound `CNC[C@H]1CCOc2c(-c3ccnc(C)c3)cccc21` [Compound 16, (S)—N-methyl-1-(8-(2-methylpyridin-4-yl)chroman-4-yl)methanamine] displayed an EC50 of 10 to 100 nM.
Next, `NC[C@H]1CCOc2c(-c3cccnc3)cccc21` [Compound 24]: 10 to 100 nM; `CNC[C@@H]1CCOc2c(-c3cnsc3)cccc21` [Compound 57, (R)-1-(8-(isothiazol-4-yl)chroman-4-yl)-N-methylmethanamine]: 1 to 10 nM; `CNC[C@@H]1CCOc2c(-c3cn(C)nc3C)cccc21` [Compound 49]: 10 to 100 nM.
As to `Cc1cc(-c2cccc3c2OCC[C@H]3CN)c(C)cn1` [Compound 19, (R)-(8-(2,5-dimethylpyridin-4-yl)chroman-4-yl)methanamine], the 50% effective concentration (EC50) was in the range of 1 to 10 nM.
On to `CNCC1CCOc2c(-c3cnccc3C)cccc21` (stereo in doubt) [Compound 6, (R)—N-methyl-1-(8-(4-methylpyridin-3-yl)chroman-4-yl)methanamine], for which the EC50 fell in the range of 1 to 10 nM.
With `Cc1cc(C)c(-c2cccc3c2OCC[C@H]3CN)cn1` [Compound 29, 1-[(4R)-8-(4,6-dimethylpyridin-3-yl)-3,4-dihydro-2H-1-benzopyran-4-yl]methanamine], the EC50 is 1 to 10 nM.
In turn, `NC[C@@H]1CCOc2c(-c3cnccn3)cccc21` [Compound 34] had an EC50 of 10 to 100 nM.
`CNC[C@@H]1CCOc2c(-c3ccnc(C(F)(F)F)c3)cccc21` [Compound 10] showed an EC50 of 1 to 10 nM.
For `Cc1ccc(-c2cccc3c2OCC[C@H]3CN)cn1` [Compound 13, (R)-(8-(6-methylpyridin-3-yl)chroman-4-yl)methanamine], the concentration for a half-maximal effect (EC50) lay in the range of 0.1 to 1 nM.
As to `Cc1ncc(-c2cccc3c2OCC[C@H]3CN)cn1` [Compound 26], the EC50 was in the range of 10 to 100 nM.
Turning to `CNC[C@@H]1CCOc2c(-c3cncnc3)cccc21` [Compound 32], the EC50 was 1 to 10 nM.
`CNC[C@@H]1CCOc2c(-c3cncn3C)cccc21` [Compound 37] returned an EC50 of 10 to 100 nM.
As for `CNC[C@@H]1CCOc2c(-c3cnccn3)cccc21` [Compound 35], the EC50 is 10 to 100 nM.
Next, `CNC[C@@H]1CCOc2c(-c3ccc(F)cc3)cccc21` [Compound 53, (R)-1-(8-(4-fluorophenyl)chroman-4-yl)-N-methylmethanamine]: 1 to 10 nM.
